Experiment [1] concerns L1210. The experiment is described as follows: In vitro cytotoxicity against Cisplatin resistant L1210/CPR leukemia cell lines. Format: functional, cell-based, Mus musculus.
The test system of another experiment is XF498. Description: In vitro cytotoxicity against CNS cancer XF 498 cell lines. Format: functional, cell-based, Homo sapiens.
Experiment [2] has as its system L1210. The experiment is described as follows: In vitro cytotoxicity against Cisplatin sensitive L1210/parent leukemia cell lines. Format: functional, cell-based, Mus musculus.
Another experiment deals with SK-OV-3. Description: In vitro cytotoxicity against ovarian cancer SK-OV-3 cell lines. Format: functional, cell-based, Homo sapiens.
The subject of the next experiment is A549. Description: In vitro cytotoxicity against lung cancer A 549 cell lines. Format: functional, cell-based, Homo sapiens.
A short description of experiment [3]: Relative resistance calculated as the ratio of IC50 of resistant sublime to that of IC50 of parent cell line. Format: functional.

pIC50: −log10 of the molar value.

One may read the pIC50 as −log10 of the IC50, conventionally taken in molar units.

Regarding CARBOPLATIN [listing 1 of 2 here], the negative-log IC50 (pIC50) was 4.34 in the experiment with L1210 [1]; 4.87 with XF498; 5.70 in the experiment on L1210 [2]; 4.86 in the experiment with SK-OV-3; 4.42 in the experiment with A549.
Regarding CARBOPLATIN [listing 2 of 2 here], the Relative resistance in experiment [3] was 22.7.
As to CISPLATIN [listing 1 of 2 here], the results for the pIC50 with L1210 [1], with XF498 and in the experiment with A549 were 5.47, 5.54 and 5.49, respectively.
For CISPLATIN [listing 2 of 2 here], in experiment [3], the Relative resistance is 34.
Consider “cis-Dichloro[(2S,3R,4S)-2-aminomethyl-3,4-(O-isopropylidene)dihydrxypyrrolidine]platinum (II) [listing 1 of 2 here]”, for which the pIC50 is 5.80 in the experiment with L1210 [1]; 5.21 in the experiment with XF498; 6.52 with L1210 [2]; 5.11 with SK-OV-3; 4.96 in the experiment with A549.
For the substance “cis-Dichloro[(2S,3R,4S)-2-aminomethyl-3,4-(O-isopropylidene)dihydrxypyrrolidine]platinum (II) [listing 2 of 2 here]”, in experiment [3], the Relative resistance was 5.3.
For the substance “cis-Dichloro[(2S,3R,4S)-2-aminomethyl-3,4-dihydroxypyrrolidine]platinum (II) [listing 1 of 2 here]”, the negative-log IC50 (pIC50) with L1210 [1] is 4.96; in the experiment on XF498 it was 4.83; with L1210 [2], 5.85; in the experiment on SK-OV-3, 4.81; with A549, 4.49.
“cis-Dichloro[(2S,3R,4S)-2-aminomethyl-3,4-dihydroxypyrrolidine]platinum (II) [listing 2 of 2 here]”: the Relative resistance in experiment [3] is 7.8.

The values are drawn from ChEMBL document CHEMBL1149968, “Synthesis and in vitro cytotoxicity of cis-dichloro[(2S,3R,4S)-2-aminomethyl-3,4-(O-isopropylidene)dihydroxy- or -3,4-dihydroxypyrrolidine]platinum(II)” (Bioorg Med Chem Lett, 1996).
